The values below are quoted from earlier work in patent US20040115261A1, “Controlled delivery of tetracycline compounds and tetracycline derivatives” (priority 2003, published 2004).

The structures appear in SMILES notation.

The conditions of the data set: based on steady-state pharmacokinetics, minimum antibiotic serum concentration = lowest concentration known to exert a significant antibiotic effect.

Regarding `CN(C)[C@@H]1C(O)=C(C(N)=O)C(=O)[C@@]2(O)C(O)=C3C(=O)c4c(O)cccc4[C@@](C)(O)[C@H]3C[C@@H]12` [tetracycline], the “plasma antibiotic threshold level” value was 0.5 µg/mL.
